Data published in patent US20120004228A1, “Bis Aromatic Compounds for Use as LTC4 Synthase Inhibitors” (BIOLIPOX AB, priority 2009, published 2012).

These compounds were tested against T1, Recombinant human LTC4 synthase (Homo sapiens, UniProt Q16873) (assay: In vitro LTC4 synthase assay (LTA4 to LTC4, HTRF detection)).
T1 construct: made in house; host or cells: Pichia pastoris ('Piccia pastoralis' [sic])
T1 sequence (Q16873 1-150): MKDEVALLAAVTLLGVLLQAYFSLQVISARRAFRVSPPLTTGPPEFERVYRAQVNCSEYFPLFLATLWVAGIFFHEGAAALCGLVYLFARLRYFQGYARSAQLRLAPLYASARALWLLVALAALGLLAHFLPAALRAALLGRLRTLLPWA
Format: biochemical
Protocol: In the assay, LTC4 synthase catalyses the reaction where the substrate LTA4 is converted to LTC4. Recombinant human LTC4 synthase is expressed in Piccia pastoralis and the purified enzyme is dissolved in 25 mM tris-buffer pH 7.8 supplemented with 0.1 mM glutathione (GSH) and stored at −80° C. The assay is performed in phosphate buffered saline (PBS) pH 7.4 and 5 mM GSH in 384-well plates.
The following is added chronologically to each well:
1. 48 μL LTC4 synthase in PBS with 5 mM GSH. The total protein concentration in this solution is 0.5 μg/mL. 2. 1 μL inhibitor in DMSO (final concentration 10 μM). 3. Incubation of the plate at room temperature for 10 min. 4. 1 μL LTA4 (final concentration 2.5 μM). 5. Incubation of the plate at room temperature for 5 min. 6. 10 μL of the incubation mixture is analysed using homogenous time resolved fluorescent (HTRF) detection.

SMILES	IC50
CN(c1ccc(Cl)cc1)c1ccc(C(=O)c2cc(NC(=O)c3ccccc3)cc(C(=O)O)c2)nc1 [2:8, 3-Benzamido-5-{5-[(4-chlorophenyl)(methyl)amino]picolinoyl}benzoic acid]	214 nM
CC(=O)N(c1ccccc1)c1cc(C(=O)O)cc(C(=O)c2ccc(N(C)c3ccc(Cl)cc3)cn2)c1 [Example 9:23, 3-{5-[(4-Chlorophenyl)(methyl)amino]picolinoyl}-5-(N-phenylacetamido)benzoic acid]	199 nM
COc1ccccc1N(C)c1cc(C(=O)O)cc(C(=O)c2ccc(N(C)c3ccc(Cl)cc3)cn2)c1 [9:22, 3-{5-[(4-Chlorophenyl)(methyl)amino]picolinoyl}-5-[(2-methoxyphenyl)(methyl)-amino]benzoic acid]	366 nM
CN(c1ccc(Cl)cc1)c1ccc(C(=O)c2cc(Nc3ccc4c(c3)OCO4)cc(C(=O)O)c2)nc1 [9:29, 3-{5-[(4-Chlorophenyl)(methyl)amino]picolinoyl}-5-(3,4-methylenedioxy-phenylamino)benzoic acid]	420 nM
CN(c1ccc(Cl)cc1)c1ccc(C(=O)c2cc(C(=O)O)cc(C(=O)Nc3ccccc3)c2)cc1 [Example 2:11]	694 nM
COc1ccc(N(C)c2cc(C(=O)O)cc(C(=O)c3ccc(N(C)c4ccc(Cl)cc4)cn3)c2)cc1 [9:28, 3-{5-[(4-Chlorophenyl)(methyl)amino]picolinoyl}-5-[(4-methoxyphenyl)(methyl)-amino]benzoic acid]	137 nM
CN(c1ccc(Cl)cc1)c1ccc(C(=O)c2cc(C(=O)O)cc(C(=O)c3ccccc3)c2)nc1 [Example 14, 3-Benzoyl-5-{5-[(4-chlorophenyl)(methyl)amino]picolinoyl}benzoic acid]	146 nM

Compounds with a lower IC50, results first:

IC50	SMILES
126 nM	CN(c1ccc(Cl)cc1)c1ccc(C(=O)c2cc(C(=O)O)cc(N(CCCCO)c3cccnc3)c2)nc1 [9:39, 3-{5-[(4-Chlorophenyl)(methyl)amino]picolinoyl}-5-[(4-hydroxybutyl)(3-pyridyl)-amino]benzoic acid]
40 nM	CN(c1ccc(Cl)cc1)c1ccc(C(=O)c2cc(C(=O)O)cc(N(CC3OCCO3)c3ccccc3)c2)cc1 [10:29, 3-{[(1,3-Dioxolan-2-yl)methyl](phenyl)amino}-5-{4-[(4-chlorophenyl)(methyl)-amino]benzoyl}benzoic acid]
103 nM	CN(Cc1ccc2c(c1)OCO2)c1cc(C(=O)O)cc(C(=O)c2ccc(N(C)c3ccc(Cl)cc3)cn2)c1 [9:14, 3-{5-[(4-Chlorophenyl)(methyl)amino]picolinoyl}-5-[(3,4-methylenedioxy-benzyl)(methyl)amino]benzoic acid]
64 nM	CN(c1ccc(Cl)cc1)c1ccc(C(=O)c2cc(Nc3ccc(Cl)cc3)cc(C(=O)O)c2)cc1 [Example 10:2, 3-{4-[(4-Chlorophenyl)(methyl)amino]benzoyl}-5-(4-chlorophenylamino)-benzoic acid]
61 nM	CN(c1ccc(Cl)cc1)c1ccc(C(=O)c2cc(Nc3ccccc3)cc(C(=O)O)c2)nc1 [9:11, 3-{5-[(4-Chlorophenyl)(methyl)amino]picolinoyl}-5-(phenylamino)benzoic acid]
45 nM	CN(c1ccc(Cl)cc1)c1ccc(C(=O)c2cc(C(=O)O)cc(N(C)c3ccc(Cl)cc3)c2)nc1 [9:3, 3-[(4-Chlorophenyl)(methyl)amino]-5-{5-[(4-chlorophenyl)(methyl)amino]-picolinoyl}benzoic acid]
30 nM	O=C(O)c1cc(Nc2ccccc2)cc(C(=O)c2ccc(N(CC3CC3)c3ccc(Cl)cc3)cn2)c1 [9:20, 3-{5-[(4-Chlorophenyl)(cyclopropylmethyl)amino]picolinoyl}-5-(phenylamino)-benzoic acid]
102 nM	CCCCCCNC(=O)c1cc(C(=O)O)cc(C(=O)c2ccc(N(C)c3ccc(Cl)cc3)cn2)c1 [2:5, 3-{5-[(4-Chlorophenyl)(methyl)amino]picolinoyl}-5-(hexylcarbamoyl)benzoic acid]
